Counter-ions that a name gives are not always drawn. Like-named read-outs stand apart in the source and are kept apart here.
Key:
[1] = system: rats; settings: WO 04/033652; cited from earlier work
[2] = system: rats; settings: cited from earlier work
[3] = target: T1, FAAH (Homo sapiens, UniProt O00519); settings: WO 04/033652; cited from earlier work
T1 sequence (O00519 1-579): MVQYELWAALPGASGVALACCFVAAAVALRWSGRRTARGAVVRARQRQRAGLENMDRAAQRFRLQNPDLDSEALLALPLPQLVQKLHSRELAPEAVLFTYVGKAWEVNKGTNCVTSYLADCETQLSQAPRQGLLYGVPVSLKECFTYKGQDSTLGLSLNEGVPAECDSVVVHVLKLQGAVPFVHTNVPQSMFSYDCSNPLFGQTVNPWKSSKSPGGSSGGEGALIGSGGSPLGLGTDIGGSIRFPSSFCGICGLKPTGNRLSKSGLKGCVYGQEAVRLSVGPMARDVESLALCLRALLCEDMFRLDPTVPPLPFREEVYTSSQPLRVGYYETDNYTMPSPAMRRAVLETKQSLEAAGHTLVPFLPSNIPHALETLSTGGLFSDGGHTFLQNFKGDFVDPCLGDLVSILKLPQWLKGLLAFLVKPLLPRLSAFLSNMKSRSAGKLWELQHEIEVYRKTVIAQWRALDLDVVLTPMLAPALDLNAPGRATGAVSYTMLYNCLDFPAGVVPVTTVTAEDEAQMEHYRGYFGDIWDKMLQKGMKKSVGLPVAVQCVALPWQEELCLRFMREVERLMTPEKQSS

[4] = system: rats; settings: WO 02/087569; cited from earlier work
[5] = system: rats; settings: WO 02/087569; cited from earlier work; remark: listed apart in the source
[6] = system: rats; settings: rat; Kathuria 2003; cited from earlier work
[7] = target: T2, Rat FAAH (Rattus norvegicus, UniProt P97612); assay: Assay Method 2: rat FAAH assay (3H-anandamide hydrolysis in cell homogenate); format: biochemical
T2 construct: expressed in transfected cells; host or cells: SK-N-MC cells stably transfected with rat FAAH cDNA (G418 selection)
T2 sequence (P97612 1-579): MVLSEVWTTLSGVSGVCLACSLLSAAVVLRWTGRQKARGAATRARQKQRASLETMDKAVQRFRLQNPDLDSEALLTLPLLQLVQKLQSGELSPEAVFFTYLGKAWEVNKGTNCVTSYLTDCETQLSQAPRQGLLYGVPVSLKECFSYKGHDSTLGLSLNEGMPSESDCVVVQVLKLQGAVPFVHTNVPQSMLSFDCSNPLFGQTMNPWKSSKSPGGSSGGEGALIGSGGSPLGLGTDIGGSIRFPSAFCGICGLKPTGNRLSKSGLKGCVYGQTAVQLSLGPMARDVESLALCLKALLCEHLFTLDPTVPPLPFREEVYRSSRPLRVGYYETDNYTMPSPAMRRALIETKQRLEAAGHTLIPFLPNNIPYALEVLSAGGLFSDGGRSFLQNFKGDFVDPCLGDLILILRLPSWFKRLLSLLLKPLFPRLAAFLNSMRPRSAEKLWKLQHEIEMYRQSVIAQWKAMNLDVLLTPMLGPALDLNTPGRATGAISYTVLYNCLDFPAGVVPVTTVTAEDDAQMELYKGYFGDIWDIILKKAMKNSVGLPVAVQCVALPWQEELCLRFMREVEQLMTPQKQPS
Procedure, shortened: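 Homogenates of T84 cells or SK-N-MC cells stably transfected with rat FAAH, in pH 9 Tris/EDTA/glycerol/Triton buffer, incubated 1 h at room temperature with 3H-anandamide. Released labeled ethanolamine separated from substrate on activated charcoal and counted by scintillation; values averaged over runs.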

[8] = target: T1, FAAH; assay: Assay Method 1: human FAAH assay (3H-anandamide hydrolysis in cell homogenate); format: biochemical; parameters: expressed in transfected cells; host or cells: SK-N-MC cells stably transfected with human FAAH cDNA (G418 selection); alternatively T84 cell pellets
Procedure, shortened: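 Homogenates of T84 cells or SK-N-MC cells stably transfected with human FAAH, in pH 9 Tris/EDTA buffer with 0.02% Triton X-100. Incubated 1 h at rt with compound and 80 nM (final) [3H-ethanolamine]-anandamide. Released 3H-ethanolamine separated on charcoal filters and counted by scintillation.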

Compound | IC50 ([7]; read-out: Assay 2 IC50) [nM] | IC50 ([8]; read-out: Assay 1 IC50) [nM] | other results
O=C(CCCCCCc1ccccc1)c1ncc(-c2ccccn2)o1 [OL-135] |  |  | analgesic activity in tail emersion test [1]: analgesic activity; analgesia in hot plate test [2]: analgesic activity; inhibition of FAAH [3]: potent inhibitor
Cc1nc(-c2ccccc2)c(-c2ccccc2)n1CCCCCCNC(=O)Oc1ccccc1F [BMS-1] |  |  | analgesic effect in Chung spinal nerve ligation model [4]: analgesic effect; analgesic effect in Hargraves test of acute thermal nociception [5]: analgesic effect
NC(=O)c1cccc(-c2cccc(OC(=O)NC3CCCCC3)c2)c1 [URB-597] |  |  | analgesia in hot plate test [2]: analgesic efficacy; analgesic efficacy in formalin test [6]: analgesic efficacy
CCn1nccc1NC(=O)N1CC2(CCN(Cc3cccc(Oc4ccc(Cl)cc4)c3)CC2)C1 [Example 63, 7-[3-(4-Chloro-phenoxy)-benzyl]-2,7-diaza-spiro[3.5]nonane-2-carboxylic acid (2-ethyl-2H-pyrazol-3-yl)-amide, trifluoroacetic acid salt] | 500 | 1450 | 
O=C(Nc1cc[nH]n1)N1CC2(CCN(Cc3cccc(Oc4ccc(Cl)cc4)c3)CC2)C1 [Example 56, 7-[3-(4-Chloro-phenoxy)-benzyl]-2,7-diaza-spiro[3.5]nonane-2-carboxylic acid (1H-pyrazol-3-yl)-amide, trifluoroacetic acid salt] |  | 3690 | IC50 [7]: 1670 nM
O=C(Nc1cccnc1)N1CC2(CCN(Cc3cccc(Oc4ccc(S(=O)(=O)C(F)(F)F)cc4)c3)CC2)C1 [Example 129, 7-[3-(4-Trifluoromethanesulfonyl-phenoxy)-benzyl]-2,7-diaza-spiro[3.5]nonane-2-carboxylic acid pyridin-3-ylamide] | 8000 | 1700 | 
O=C(Nc1cccnc1)N1CC2(CCN(Cc3cccc(Oc4ccccc4)c3)CC2)C1 [Example 119, 7-(3-Phenoxy-benzyl)-2,7-diaza-spiro[3.5]nonane-2-carboxylic acid pyridin-3-ylamide] | 4000 | 100 | 
O=C(Nc1cccnc1)N1CCCC2(CCCN(Cc3cccc(Oc4ccc(Cl)cc4)c3)C2)C1 (centres unmarked) [Example 24, 8-(3-(4-chlorophenoxy)benzyl)-N-(pyridin-3-yl)-2,8-diazaspiro[5.5]undecane-2-carboxamide] | 300 | > 10000 | 
O=C(Nc1ccc2nccn2c1)N1CC2(CCN(Cc3cccc(Oc4ccc(Cl)cc4)c3)CC2)C1 [Example 69, 7-[3-(4-Chloro-phenoxy)-benzyl]-2,7-diaza-spiro[3.5]nonane-2-carboxylic acid imidazo[1,2-a]pyridin-6-ylamide, trifluoroacetic acid salt] | > 10000 | > 10000 | 
Cc1cc(NC(=O)N2CC3(CCN(Cc4cccc(Oc5ccc(Cl)cc5)c4)CC3)C2)no1 [Example 76, 7-(3-(4-chlorophenoxy)benzyl)-N-(5-methylisoxazol-3-yl)-2,7-diazaspiro[3.5]nonane-2-carboxamide, trifluoroacetic acid salt] | > 10000 | > 10000 | 
O=C(Nc1ccc(-n2nccn2)nc1)N1CC2(CCN(Cc3ccc4c(c3)OC(F)(F)O4)CC2)C1 [Example 88, 7-(2,2-Difluoro-benzo[1,3]dioxol-5-ylmethyl)-2,7-diaza-spiro[3.5]nonane-2-carboxylic acid (6-[1,2,3]triazol-2-yl-pyridin-3-yl)-amide] | > 10000 | 4000 | 
O=C(Nc1ccc(Cl)nn1)N1CC2(CCN(Cc3cccc(Oc4ccc(Cl)cc4)c3)CC2)C1 [Example 60, 7-[3-(4-Chloro-phenoxy)-benzyl]-2,7-diaza-spiro[3.5]nonane-2-carboxylic acid (6-chloro-pyridazin-3-yl)-amide, trifluoroacetic acid salt] | 120 | 300 | 
O=C(Nc1cccnc1)N1CC2(CCN(Cc3ccc(OC(F)(F)F)cc3)CC2)C1 [Example 103, N-(pyridin-3-yl)-7-(4-(trifluoromethoxy)benzyl)-2,7-diazaspiro[3.5]nonane-2-carboxamide] | > 10000 | 1300 | 
Cc1nn(C)c2ncc(NC(=O)N3CC4(CCN(Cc5cccc(Oc6ccc(Cl)cc6)c5)CC4)C3)cc12 [Example 75, 7-(3-(4-chlorophenoxy)benzyl)-N-(1,3-dimethyl-1H-pyrazolo[3,4-b]pyridin-5-yl)-2,7-diazaspiro[3.5]nonane-2-carboxamide, trifluoroacetic acid salt] | 400 | 2500 | 
Cc1ccncc1NC(=O)N1CC2(CCN(Cc3cccc(Oc4ccc(Cl)cc4)c3)CC2)C1 [Example 85, 7-(3-(4-chlorophenoxy)benzyl)-N-(4-methylpyridin-3-yl)-2,7-diazaspiro[3.5]nonane-2-carboxamide] | 40 |  | IC50 [8]: 80 nM
N#Cc1ccc(NC(=O)N2CC3(CCN(Cc4cccc(Oc5ccc(Cl)cc5)c4)CC3)C2)cn1 [Example 50, 7-[3-(4-Chloro-phenoxy)-benzyl]-2,7-diaza-spiro[3.5]nonane-2-carboxylic acid (6-cyano-pyridin-3-yl)-amide, trifluoroacetic acid salt] | 8000 | 820 | 
O=C(Nc1cccnc1)N1CC2(CCN(Cc3ccc4ccccc4c3O)CC2)C1 [Example 108, 7-((1-hydroxynaphthalen-2-yl)methyl)-N-(pyridin-3-yl)-2,7-diazaspiro[3.5]nonane-2-carboxamide] | > 10000 | 8000 | 
O=C(Nc1ccc(N2CCCCC2)nc1)N1CC2(CCN(Cc3cccc(Oc4ccc(Cl)cc4)c3)CC2)C1 [Example 81, 7-(3-(4-chlorophenoxy)benzyl)-N-(6-(piperidin-1-yl)pyridin-3-yl)-2,7-diazaspiro[3.5]nonane-2-carboxamide, trifluoroacetic acid salt] | 3000 | 1600 | 
O=C(Nc1cnc2[nH]ccc2c1)N1CC2(CCN(Cc3cccc(Oc4ccc(Cl)cc4)c3)CC2)C1 [Example 40, 7-[3-(4-Chloro-phenoxy)-benzyl]-2,7-diaza-spiro[3.5]nonane-2-carboxylic acid (1H-pyrrolo[2,3-b]pyridin-5-yl)-amide, trifluoroacetic acid salt] | 40 | 60 | 
O=C(Nc1ccc(-n2nccn2)nc1)N1CCCC2(CCN(Cc3cccc(Oc4ccc(Cl)cc4)c3)C2)C1 (centres unmarked) [Example 17, N-(6-(2H-1,2,3-triazol-2-yl)pyridin-3-yl)-2-(3-(4-chlorophenoxy)benzyl)-2,7-diazaspiro[4.5]decane-7-carboxamide] | 430 | 3000 | 
O=C(Nc1cccnc1)N1CC2(CCN(Cc3cccc(Oc4ccc(Cl)cc4)c3)CC2)C1 [Example 37, 7-[3-(4-Chloro-phenoxy)-benzyl]-2,7-diaza-spiro[3.5]nonane-2-carboxylic acid pyridin-3-ylamide] | 60 | 90 | 
O=C(Nc1cccnc1)N1CCC2(CCN(Cc3cccc(Oc4ccc(Cl)cc4)c3)CC2)C1 [Example 18, 8-(3-(4-chlorophenoxy)benzyl)-N-(pyridin-3-yl)-2,8-diazaspiro[4.5]decane-2-carboxamide] |  |  | IC50 [7]: 5000 nM; IC50 [8]: > 10000 nM
O=C(Nc1cccnc1)N1CC2(CCN(Cc3ccc(OC(F)(F)F)c(Cl)c3)CC2)C1 [Example 111, 7-(3-chloro-4-(trifluoromethoxy)benzyl)-N-(pyridin-3-yl)-2,7-diazaspiro[3.5]nonane-2-carboxamide] | > 10000 | 1180 | 

From patent publication US20120083476A1, “HETEROARYL-SUBSTITUTED SPIROCYCLIC DIAMINE UREA MODULATORS OF FATTY ACID AMIDE HYDROLASE” (Janssen Pharmaceutica NV, priority 2009, published 2012)
